{"source": "patent US5326882A", "about": "“Chemiluminescent 3-(substituted Adamant-2'-Ylidene) 1,2-dioxetanes” (Tropix, Inc., priority 1992, dated 1994)", "format_in_all_cases": "biochemical", "key": {"[1]": {"biological_target": "T1, alkaline phosphatase (calf intestine; Biozyme) (Bos taurus, UniProt P19111)", "T1 construct": "purchased Biozyme; host or cells: calf intestine", "T1 sequence (P19111 20-506 limits assumed)": "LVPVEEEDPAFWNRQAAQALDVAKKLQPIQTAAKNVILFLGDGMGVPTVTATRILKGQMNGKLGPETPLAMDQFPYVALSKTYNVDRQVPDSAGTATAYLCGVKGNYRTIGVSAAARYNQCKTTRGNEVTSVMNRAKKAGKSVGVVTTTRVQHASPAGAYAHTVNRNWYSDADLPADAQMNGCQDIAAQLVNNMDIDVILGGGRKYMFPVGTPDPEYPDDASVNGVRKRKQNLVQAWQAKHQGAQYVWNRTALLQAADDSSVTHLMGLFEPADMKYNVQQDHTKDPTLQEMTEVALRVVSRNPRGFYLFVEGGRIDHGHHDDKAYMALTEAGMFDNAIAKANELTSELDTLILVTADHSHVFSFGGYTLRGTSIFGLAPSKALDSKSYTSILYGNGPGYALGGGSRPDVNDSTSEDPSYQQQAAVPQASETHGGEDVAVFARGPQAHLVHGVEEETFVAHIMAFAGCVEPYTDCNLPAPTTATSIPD", "assay": "Total dephosphorylation, chemiluminescence decay (Example XIII)", "conditions": "30° C., carbonate/bicarbonate buffer, listed as OH-Adamant-2'-ylidene (B isomer)", "experimental": "A comparison of the total luminescence emission from AMPPD and from the corresponding 1,2-dioxetanes whose adamant-2'-ylidene groups are monosubstituted with hydroxy (A and B isomers), chloro and bromo groups was made by carrying out total dephosphorylation experiments on each of these compounds.\nAn aqueous solution of the 1,2-dioxetane (4.0 mm) in 0.05M sodium carbonate/sodium bicarbonate containing 1 mM magnesium chloride was prepared and then equilibrated at 30° C. Ten μl of a 7.64×10M aqueous solution of alkaline phosphatase (calf intestine; Biozyme) was then added, and the chemiluminescence from the resulting solution was recorded using a Turner Model 20E luminometer (Turner Instruments; Sunnyvale, Calif.).\nThe rates of chemiluminescence decay for each of the five compounds in question, expressed in relative light units (RLU's) per minute, are given in the following table."}, "[2]": {"biological_target": "T2, alkaline phosphatase (Bos taurus, UniProt P19111)", "T2 sequence (P19111 20-506 limits assumed)": "as above", "assay": "Chemiluminescent signal and signal:background with enhancer polymers (Example XVII)", "experimental": "Four sets of three tubes each, each tube in each set containing 450 μl of a 0.4 mM aqueous solution of one of the four 1,2-dioxetanes being compared in 0.1M diethanolamine containing 1 mM magnesium chloride, 0.02% sodium azide and 0.1% of the enhancer polymer, pH 10.0 (substrate buffer) were prepared and the background signal from each tube measured using a Berthold LB 952T luminometer (Berthold Instruments; Wildbad, Federal Republic of Germany).\nNext, 50 μl of an aqueous solution, 2.83×10^-12 M of alkaline phosphatase in 0.1M diethanolamine containing 1 mM magnesium chloride, 0.02% sodium azide, pH 10.0, (final enzyme concentration 2.83×10^-13 M) was added to each tube and the chemiluminescent signals were measured in the luminometer at 5 and 20 minutes. The intensity of the chemiluminescent signals and the signal: background ratios obtained for each of the four 1,2-dioxetanes in the presence of the enhancer polymers are shown in Table III below.\nThe enhancer polymers used, and the symbols for such polymers used in Table III, were the following: […]"}, "[3]": {"biological_target": "T2, alkaline phosphatase", "assay": "Half-time to plateau at low alkaline phosphatase concentration (Example XLI)", "conditions": "0.4 mM dioxetane at pH 10.0; 31.5° C.; 2.53 × 10^-13 M alkaline phosphatase; listed as HO-AMPPD-B"}}, "data": [{"smiles": "COC1(c2cccc(OP(=O)(O)O)c2)OOC12C1CC3CC2CC(O)(C3)C1", "note": "(single isomer, unassigned) [B-OH-AMPPD, disodium 3-(4-methoxyspiro-[1,2-dioxetane-3,2'-(5'-hydroxy)tricyclo[3.3.1.1^3,7]decan]-4-yl)phenyl phosphate]", "values": [{"measurement": "Total Decay Time", "setting": "[1]", "result": 10, "unit": "min"}, {"measurement": "Decay Rate I", "setting": "[1]; RLU's per minute", "result": 1.5, "unit": "RLU's per minute"}, {"measurement": "S/N", "setting": "[2]; polymer BAEDM, 5 min", "result": 25.4}, {"measurement": "SIGNAL", "setting": "[2]; polymer BAEDM, 5 min", "result": 4101.3}, {"measurement": "S/N", "setting": "[2]; polymer BAEDM, 20 min", "result": 34.3}, {"measurement": "SIGNAL", "setting": "[2]; polymer BAEDM, 20 min", "result": 5538.2}, {"measurement": "S/N", "setting": "[2]; polymer BAEDM, time 0", "result": 1.0}, {"measurement": "SIGNAL", "setting": "[2]; polymer BAEDM, time 0 (background, before enzyme)", "result": 161.4}, {"measurement": "S/N", "setting": "[2]; polymer BZ, 5 min", "result": 18.8}, {"measurement": "SIGNAL", "setting": "[2]; polymer BZ, 5 min", "result": 2246.4}, {"measurement": "S/N", "setting": "[2]; polymer BZ, 20 min", "result": 22.4}, {"measurement": "SIGNAL", "setting": "[2]; polymer BZ, 20 min", "result": 2669.2}, {"measurement": "S/N", "setting": "[2]; polymer BZ, time 0", "result": 1.0}, {"measurement": "SIGNAL", "setting": "[2]; polymer BZ, time 0 (background, before enzyme)", "result": 119.4}, {"measurement": "S/N", "setting": "[2]; polymer DAA TMQ, 5 min", "result": 40.3}, {"measurement": "SIGNAL", "setting": "[2]; polymer DAA TMQ, 5 min", "result": 5486.8}, {"measurement": "S/N", "setting": "[2]; polymer DAA TMQ, 20 min", "result": 49.0}, {"measurement": "SIGNAL", "setting": "[2]; polymer DAA TMQ, 20 min", "result": 6670.3}, {"measurement": "S/N", "setting": "[2]; polymer DAA TMQ, time 0", "result": 1.0}, {"measurement": "SIGNAL", "setting": "[2]; polymer DAA TMQ, time 0 (background, before enzyme)", "result": 136.0}, {"measurement": "S/N", "setting": "[2]; polymer DME(OH)B, 5 min", "result": 20.0}, {"measurement": "SIGNAL", "setting": "[2]; polymer DME(OH)B, 5 min", "result": 2640.9}, {"measurement": "S/N", "setting": "[2]; polymer DME(OH)B, 20 min", "result": 30.2}, {"measurement": "SIGNAL", "setting": "[2]; polymer DME(OH)B, 20 min", "result": 3990.6}, {"measurement": "S/N", "setting": "[2]; polymer DME(OH)B, time 0", "result": 1.0}, {"measurement": "SIGNAL", "setting": "[2]; polymer DME(OH)B, time 0 (background, before enzyme)", "result": 132.1}, {"measurement": "S/N", "setting": "[2]; polymer DMEB, 5 min", "result": 35.7}, {"measurement": "SIGNAL", "setting": "[2]; polymer DMEB, 5 min", "result": 4451.6}, {"measurement": "S/N", "setting": "[2]; polymer DMEB, 20 min", "result": 48.3}, {"measurement": "SIGNAL", "setting": "[2]; polymer DMEB, 20 min", "result": 6023.9}, {"measurement": "S/N", "setting": "[2]; polymer DMEB, time 0", "result": 1.0}, {"measurement": "SIGNAL", "setting": "[2]; polymer DMEB, time 0 (background, before enzyme)", "result": 124.6}, {"measurement": "S/N", "setting": "[2]; polymer DMQ TEQ, 5 min", "result": 63.3}, {"measurement": "SIGNAL", "setting": "[2]; polymer DMQ TEQ, 5 min", "result": 9213.8}, {"measurement": "S/N", "setting": "[2]; polymer DMQ TEQ, 20 min", "result": 57.0}, {"measurement": "SIGNAL", "setting": "[2]; polymer DMQ TEQ, 20 min", "result": 8288.0}, {"measurement": "S/N", "setting": "[2]; polymer DMQ TEQ, time 0", "result": 1.0}, {"measurement": "SIGNAL", "setting": "[2]; polymer DMQ TEQ, time 0 (background, before enzyme)", "result": 145.5}, {"measurement": "S/N", "setting": "[2]; polymer MPB, 5 min", "result": 71.5}, {"measurement": "SIGNAL", "setting": "[2]; polymer MPB, 5 min", "result": 10021.3}, {"measurement": "S/N", "setting": "[2]; polymer MPB, 20 min", "result": 78.0}, {"measurement": "SIGNAL", "setting": "[2]; polymer MPB, 20 min", "result": 10939.0}, {"measurement": "S/N", "setting": "[2]; polymer MPB, time 0", "result": 1.0}, {"measurement": "SIGNAL", "setting": "[2]; polymer MPB, time 0 (background, before enzyme)", "result": 140.3}, {"measurement": "S/N", "setting": "[2]; polymer NONE, 5 min", "result": 26.3}, {"measurement": "SIGNAL", "setting": "[2]; polymer NONE, 5 min, enzyme 2.83×10^-13 M", "result": 3314.8}, {"measurement": "S/N", "setting": "[2]; polymer NONE, 20 min", "result": 29.8}, {"measurement": "SIGNAL", "setting": "[2]; polymer NONE, 20 min, enzyme 2.83×10^-13 M", "result": 3767.9}, {"measurement": "S/N", "setting": "[2]; polymer NONE, time 0", "result": 1.0}, {"measurement": "SIGNAL", "setting": "[2]; polymer NONE, time 0 (background, before enzyme)", "result": 126.3}, {"measurement": "S/N", "setting": "[2]; polymer S/TMQ(1:2), 5 min", "result": 20.6}, {"measurement": "SIGNAL", "setting": "[2]; polymer S/TMQ(1:2), 5 min", "result": 3305.1}, {"measurement": "S/N", "setting": "[2]; polymer S/TMQ(1:2), 20 min", "result": 35.7}, {"measurement": "SIGNAL", "setting": "[2]; polymer S/TMQ(1:2), 20 min", "result": 5722.3}, {"measurement": "S/N", "setting": "[2]; polymer S/TMQ(1:2), time 0", "result": 1.0}, {"measurement": "SIGNAL", "setting": "[2]; polymer S/TMQ(1:2), time 0 (background, before enzyme)", "result": 160.3}, {"measurement": "S/N", "setting": "[2]; polymer S/TMQ(1:4), 5 min", "result": 35.6}, {"measurement": "SIGNAL", "setting": "[2]; polymer S/TMQ(1:4), 5 min", "result": 4775.3}, {"measurement": "S/N", "setting": "[2]; polymer S/TMQ(1:4), 20 min", "result": 53.1}, {"measurement": "SIGNAL", "setting": "[2]; polymer S/TMQ(1:4), 20 min", "result": 7120.3}, {"measurement": "S/N", "setting": "[2]; polymer S/TMQ(1:4), time 0", "result": 1.0}, {"measurement": "SIGNAL", "setting": "[2]; polymer S/TMQ(1:4), time 0 (background, before enzyme)", "result": 134.0}, {"measurement": "SIGNAL", "setting": "[2]; polymer SAPPHIRE (BDMQ), time 0 (background, before enzyme)", "result": 138.8}, {"measurement": "S/N", "setting": "[2]; polymer SAPPHIRE, 5 min", "result": 78.6}, {"measurement": "SIGNAL", "setting": "[2]; polymer SAPPHIRE, 5 min", "result": 10908.4}, {"measurement": "S/N", "setting": "[2]; polymer SAPPHIRE, 20 min", "result": 105.3}, {"measurement": "SIGNAL", "setting": "[2]; polymer SAPPHIRE, 20 min", "result": 14625.4}, {"measurement": "S/N", "setting": "[2]; polymer SAPPHIRE, time 0", "result": 1.0}, {"measurement": "S/N", "setting": "[2]; polymer TBQ, 5 min", "result": 97.6}, {"measurement": "SIGNAL", "setting": "[2]; polymer TBQ, 5 min", "result": 15508.5}, {"measurement": "S/N", "setting": "[2]; polymer TBQ, 20 min", "result": 131.1}, {"measurement": "SIGNAL", "setting": "[2]; polymer TBQ, 20 min", "result": 20830.8}, {"measurement": "S/N", "setting": "[2]; polymer TBQ, time 0", "result": 1.0}, {"measurement": "SIGNAL", "setting": "[2]; polymer TBQ, time 0 (background, before enzyme)", "result": 158.9}, {"measurement": "S/N", "setting": "[2]; polymer TEQ, 5 min", "result": 61.8}, {"measurement": "SIGNAL", "setting": "[2]; polymer TEQ, 5 min", "result": 8806.2}, {"measurement": "S/N", "setting": "[2]; polymer TEQ, 20 min", "result": 81.1}, {"measurement": "SIGNAL", "setting": "[2]; polymer TEQ, 20 min", "result": 11563.4}, {"measurement": "S/N", "setting": "[2]; polymer TEQ, time 0", "result": 1.0}, {"measurement": "SIGNAL", "setting": "[2]; polymer TEQ, time 0 (background, before enzyme)", "result": 142.6}, {"measurement": "S/N", "setting": "[2]; polymer TMQ, 5 min", "result": 49.8}, {"measurement": "SIGNAL", "setting": "[2]; polymer TMQ, 5 min", "result": 6258.9}, {"measurement": "S/N", "setting": "[2]; polymer TMQ, 20 min", "result": 70.5}, {"measurement": "SIGNAL", "setting": "[2]; polymer TMQ, 20 min", "result": 8857.8}, {"measurement": "S/N", "setting": "[2]; polymer TMQ, time 0", "result": 1.0}, {"measurement": "SIGNAL", "setting": "[2]; polymer TMQ, time 0 (background, before enzyme)", "result": 125.7}, {"measurement": "HALF-TIME TO PLATEAU (min.) AL LOW ALK PHOS CONCENTRATION", "setting": "[3]", "result": 1.03, "unit": "min"}]}]}
